Reference: the supplement of paper PMC4932681

Assays:
[1] = system: BT-474 Tam1; test: drug sensitivity score (DSS) (DSS (dimensionless)); higher = more sensitive; extreme values may be limits of the assay; details: 4-OH-tamoxifen in medium 1 µM; 72 h
Method: (§1)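 FIMM FO2B library drugs were tested at 5 concentrations (10,000-fold range) for 72 h, with CellTiter-Glo viability normalised to DMSO and benzethonium chloride controls. The Drug Sensitivity Score (DSS) is computed from the fitted logistic dose-response curve (area-based; 0 = inactive). Resistant lines and the 'in 1µM tamoxifen' arms were tested in 1 µM 4-OH-tamoxifen.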

[2] = system: BT-474 Tam2; test: as above; details: 4-OH-tamoxifen in medium 1 µM; 72 h
Method: as §1

[3] = system: BT-474; test: as above; details: 72 h
Method: as §1

[4] = system: MCF-7 Tam1; test: as above; details: 4-OH-tamoxifen in medium 1 µM; 72 h
Method: as §1

[5] = system: MCF-7; test: as above; details: 72 h
Method: as §1

[6] = system: T-47D Tam1; test: as above; details: 4-OH-tamoxifen in medium 1 µM; 72 h
Method: as §1

[7] = system: T-47D Tam2; test: as above; details: 4-OH-tamoxifen in medium 1 µM; 72 h
Method: as §1

[8] = system: T-47D; test: as above; details: 72 h
Method: as §1

[9] = system: ZR-75-1 Tam1; test: as above; details: 4-OH-tamoxifen in medium 1 µM; 72 h
Method: as §1

[10] = system: ZR-75-1 Tam2; test: as above; details: 4-OH-tamoxifen in medium 1 µM; 72 h
Method: as §1

[11] = system: ZR-75-1; test: as above; details: 72 h
Method: as §1

[12] = system: BT-474 Tam1; test: relative IC50 (midpoint of fitted logistic curve, plateau may be below 50% inhibition; CellTiter-Glo viability); higher = less potent; details: 4-OH-tamoxifen in medium 1 µM; 72 h
Method: (§2)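 FIMM FO2B library drugs were plated at 5 concentrations spanning a 10,000-fold range in 384-well plates. Cells were incubated for 72 h at 37 °C and viability was read by CellTiter-Glo, normalised to DMSO (0% inhibition) and 100 µM benzethonium chloride (100% inhibition). IC50 values come from logistic dose-response fits (Breeze pipeline). Tamoxifen-resistant lines and the 'in 1µM tamoxifen' parental arms were tested in medium with 1 µM 4-OH-tamoxifen.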

[13] = system: BT-474; test: as above; details: 72 h
Method: as §2

[14] = system: MCF-7 Tam1; test: as above; details: 4-OH-tamoxifen in medium 1 µM; 72 h
Method: as §2

[15] = system: MCF-7; test: as above; details: 72 h
Method: as §2

[16] = system: ZR-75-1 Tam1; test: as above; details: 4-OH-tamoxifen in medium 1 µM; 72 h
Method: as §2

[17] = system: ZR-75-1 Tam2; test: as above; details: 4-OH-tamoxifen in medium 1 µM; 72 h
Method: as §2

[18] = system: ZR-75-1; test: as above; details: 72 h
Method: as §2

[19] = system: BT-474 Tam2; test: as above; details: 4-OH-tamoxifen in medium 1 µM; 72 h
Method: as §2

[20] = system: T-47D; test: as above; details: 72 h
Method: as §2

Structure (SMILES) | drug sensitivity score [1] | drug sensitivity score [2] | drug sensitivity score ([3]; 4-OH-tamoxifen in medium 0 µM) | drug sensitivity score ([3]; 4-OH-tamoxifen in medium 1 µM) | drug sensitivity score [4] | drug sensitivity score ([5]; 4-OH-tamoxifen in medium 0 µM) | drug sensitivity score ([5]; 4-OH-tamoxifen in medium 1 µM) | drug sensitivity score [6] | drug sensitivity score [7] | drug sensitivity score ([8]; 4-OH-tamoxifen in medium 0 µM) | drug sensitivity score ([8]; 4-OH-tamoxifen in medium 1 µM) | drug sensitivity score [9] | drug sensitivity score [10] | drug sensitivity score ([11]; 4-OH-tamoxifen in medium 0 µM) | drug sensitivity score ([11]; 4-OH-tamoxifen in medium 1 µM) | relative IC50 [12] | relative IC50 ([13]; 4-OH-tamoxifen in medium 0 µM) | relative IC50 [14] | relative IC50 ([15]; 4-OH-tamoxifen in medium 0 µM) | relative IC50 [16] | relative IC50 [17] | relative IC50 ([18]; 4-OH-tamoxifen in medium 0 µM) | relative IC50 ([18]; 4-OH-tamoxifen in medium 1 µM) | relative IC50 [19] | relative IC50 ([13]; 4-OH-tamoxifen in medium 1 µM) | relative IC50 ([20]; 4-OH-tamoxifen in medium 0 µM) | relative IC50 ([20]; 4-OH-tamoxifen in medium 1 µM) | relative IC50 ([15]; 4-OH-tamoxifen in medium 1 µM)
CC(C)Cn1cnc2c(N)nc3ccccc3c21 [Imiquimod] | 0 | 0 | 0 | 0.268 | 0 | 0 | 0.399 | 1.59 | 0.195 | 0.182 | 0 | 0 | 0 | 0 | 0 | > 10 µM | > 10 µM | > 10 µM | > 10 µM | > 10 µM | > 10 µM | > 10 µM | > 10 µM | – | – | – | – | –
CS(=O)(=O)CCNCc1ccc(-c2ccc3ncnc(Nc4ccc(OCc5cccc(F)c5)c(Cl)c4)c3c2)o1 [Lapatinib] | 11.6 | 12.8 | 8.29 | 12.2 | 0 | 0 | 1.43 | 4 | 0.567 | 0 | 0 | 0 | 0 | 0 | 0 | 0.0894 µM | 0.113 µM | > 1 µM | > 1 µM | > 1 µM | > 1 µM | > 1 µM | > 1 µM | 0.0659 µM | 0.0824 µM | > 1 µM | > 1 µM | –
NC(=O)Nc1cc(-c2cccc(F)c2)sc1C(=O)N[C@H]1CCCNC1 [AZD7762] | 0 | 0 | 0 | 0 | 0 | 3.41 | 0 | 3 | 2.77 | 0 | 2 | 0 | 0 | 0 | 0 | > 1 µM | > 1 µM | > 1 µM | 0.129 µM | > 1 µM | > 1 µM | – | > 1 µM | > 1 µM | > 1 µM | > 1 µM | – | > 1 µM
CN(C)C/C=C/C(=O)Nc1cc2c(Nc3ccc(F)c(Cl)c3)ncnc2cc1O[C@H]1CCOC1 [Afatinib (BIBW2992, Tovok)] | 21.9 | 21.8 | 15.3 | 20.5 | 0 | 0 | 0.328 | 1.83 | 0.583 | 0 | 0 | 0 | 0 | 0 | 0 | 0.0124 µM | 0.0257 µM | > 1 µM | > 1 µM | > 1 µM | > 1 µM | > 1 µM | > 1 µM | 0.0131 µM | 0.0158 µM | > 1 µM | > 1 µM | –
